Laboratory results reported in PubChem BioAssay AID1794825.

Biological target: Sodium- and chloride-dependent glycine transporter 2 (Homo sapiens) (UniProt Q9Y345)
Assay: PubChem AID 1794825
Conditions: HEK-293 SLC6A5 OE, FLIPR membrane potential dye

Sequence of Sodium- and chloride-dependent glycine transporter 2 (Homo sapiens) (Q9Y345 whole entry, looked up): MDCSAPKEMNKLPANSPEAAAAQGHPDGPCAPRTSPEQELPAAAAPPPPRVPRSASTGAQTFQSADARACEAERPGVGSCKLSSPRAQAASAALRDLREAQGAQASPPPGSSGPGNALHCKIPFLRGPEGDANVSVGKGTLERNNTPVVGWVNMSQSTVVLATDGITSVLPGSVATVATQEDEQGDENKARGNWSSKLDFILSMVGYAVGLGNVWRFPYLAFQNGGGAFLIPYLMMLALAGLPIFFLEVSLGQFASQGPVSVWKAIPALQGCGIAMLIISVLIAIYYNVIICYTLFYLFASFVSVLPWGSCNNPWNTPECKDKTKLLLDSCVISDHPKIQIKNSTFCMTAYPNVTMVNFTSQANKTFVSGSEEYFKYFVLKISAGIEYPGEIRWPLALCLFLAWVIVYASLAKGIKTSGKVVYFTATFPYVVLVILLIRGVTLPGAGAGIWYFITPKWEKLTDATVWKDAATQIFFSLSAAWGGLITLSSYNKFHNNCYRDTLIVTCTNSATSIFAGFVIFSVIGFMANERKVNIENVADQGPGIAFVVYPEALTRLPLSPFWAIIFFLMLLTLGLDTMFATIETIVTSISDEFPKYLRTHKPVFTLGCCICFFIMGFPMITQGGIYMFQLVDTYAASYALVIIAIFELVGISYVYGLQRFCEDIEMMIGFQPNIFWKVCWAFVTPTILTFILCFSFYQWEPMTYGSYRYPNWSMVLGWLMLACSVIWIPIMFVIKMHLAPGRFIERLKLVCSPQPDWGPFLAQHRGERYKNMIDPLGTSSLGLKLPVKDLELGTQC

EC50: 128 µM
SMILES: NCC(=O)O
